Data as given in ChEMBL document CHEMBL2146473 (Bioorg Med Chem, 2012).
Active and inactive are the calls of the source. The rule behind the calls is not given here.

Assays:
Dipeptidyl peptidase 4 = Dipeptidyl peptidase 4 (Rattus norvegicus, UniProt P14740); format: cell-free, Plasma
Description: Inhibition of DPP4 in rat plasma using GLY-Pro-MCA as substrate after 60 mins by fluorescence assay

Rattus norvegicus [1] = species: Rattus norvegicus; assay: animal or person; format: functional; conditions: Wistar, Plasma, po, 0.5 h
Rattus norvegicus [2] = species: Rattus norvegicus; assay: animal or person; format: functional; conditions: Wistar, Plasma, po, 9 h
Rattus norvegicus [3] = assay: Antidiabetic activity in Zucker fatty rat assessed as decrease in plasma glucose excursion at 0.03 to 1 mg/kg, po administered 30 mins prior to glucose challenge by oral glucose tolerance test; format: functional, organism-based
Rattus norvegicus [4] = assay: Antidiabetic activity in Zucker fatty rat assessed as normalization of glucose excursion at 0.03 mg/kg, po administered 30 mins prior to glucose challenge by oral glucose tolerance test relative to lean-control; format: functional, organism-based; parameters: dose 0.03 mg/kg
Rattus norvegicus [5] = assay: Antidiabetic activity in Zucker fatty rat assessed as decrease in AUC (0 to 60 mins) of plasma glucose level at 0.03 to 1 mg/kg, po administered 30 mins prior to glucose challenge by oral glucose tolerance test; format: functional, organism-based
Rattus norvegicus [6] = assay: Inhibition of DPP4 in po dosed Wistar rat plasma using GLY-Pro-MCA as substrate after 48 hrs by fluorescence assay; format: functional, organism-based
Rattus norvegicus [7] = assay: Sustained inhibition of DPP4 in Wistar rat plasma using GLY-Pro-MCA as substrate at 1 mg/kg, po measured up to 24 hrs by fluorescence assay; format: functional, organism-based; parameters: dose 1 mg/kg
[8] = AUC (0 to infinity) in monkey at 0.1 mg/kg, po; format: ADME, organism-based, Macaca mulatta; parameters: time infinity, dose 0.1 mg/kg, route oral; conditions: rhesus monkey, plasma
[9] = Tmax in rat at 0.3 mg/kg, po; format: ADME, organism-based; parameters: dose 0.3 mg/kg, route oral; conditions: in vivo
[10] = Oral bioavailability in monkey at 0.1 mg/kg; format: ADME, organism-based, Macaca mulatta; conditions: rhesus monkey, in vivo
[11] = Tmax in monkey at 0.3 mg/kg, po; format: ADME, organism-based, Macaca mulatta; parameters: dose 0.3 mg/kg, route oral; conditions: rhesus monkey, in vivo
[12] = AUC (0 to infinity) in rat at 0.1 mg/kg, po; format: ADME, organism-based; parameters: dose 0.1 mg/kg, route oral, time infinity; conditions: plasma
[13] = Terminal half life in monkey at 0.1 mg/kg, po; format: ADME, organism-based, Macaca mulatta; parameters: dose 0.1 mg/kg, route oral; conditions: rhesus monkey, in vivo, read-out: beta t1/2 (converted)
[14] = Cmax in rat at 1 mg/kg, po; format: ADME, organism-based; parameters: dose 1 mg/kg, route oral; conditions: in vivo
[15] = Oral bioavailability in rat at 0.3 mg/kg; format: ADME, organism-based; conditions: in vivo
[16] = Cmax in rat at 0.1 mg/kg, po; format: ADME, organism-based; parameters: dose 0.1 mg/kg, route oral; conditions: in vivo
[17] = Cmax in monkey at 0.1 mg/kg, po; format: ADME, organism-based, Macaca mulatta; parameters: dose 0.1 mg/kg, route oral; conditions: rhesus monkey, in vivo
[18] = Terminal half life in rat at 0.3 mg/kg, po; format: ADME, organism-based; parameters: dose 0.3 mg/kg, route oral; conditions: in vivo, read-out: beta t1/2 (converted)
[19] = AUC (0 to infinity) in rat at 0.3 mg/kg, po; format: ADME, organism-based; parameters: time infinity, dose 0.3 mg/kg, route oral; conditions: plasma
[20] = Oral bioavailability in rat at 0.1 mg/kg; format: ADME, organism-based; conditions: in vivo
[21] = Oral bioavailability in rat at 1 mg/kg; format: ADME, organism-based; conditions: in vivo
[22] = Tmax in rat at 0.1 mg/kg, po; format: ADME, organism-based; parameters: dose 0.1 mg/kg, route oral; conditions: in vivo
[23] = AUC (0 to infinity) in monkey at 0.3 mg/kg, po; format: ADME, organism-based, Macaca mulatta; parameters: time infinity, dose 0.3 mg/kg, route oral; conditions: rhesus monkey, plasma
[24] = AUC (0 to infinity) in rat at 1 mg/kg, po; format: ADME, organism-based; parameters: time infinity, dose 1 mg/kg, route oral; conditions: plasma
[25] = Terminal half life in rat at 0.1 mg/kg, po; format: ADME, organism-based; parameters: dose 0.1 mg/kg, route oral; conditions: in vivo, read-out: beta t1/2 (converted)
[26] = AUC (0 to infinity) in monkey at 1 mg/kg, po; format: ADME, organism-based, Macaca mulatta; parameters: time infinity, dose 1 mg/kg, route oral; conditions: rhesus monkey, plasma
[27] = Terminal half life in monkey at 0.3 mg/kg, po; format: ADME, organism-based, Macaca mulatta; parameters: dose 0.3 mg/kg, route oral; conditions: rhesus monkey, in vivo, read-out: beta t1/2 (converted)
[28] = Tmax in monkey at 0.1 mg/kg, po; format: ADME, organism-based, Macaca mulatta; parameters: dose 0.1 mg/kg, route oral; conditions: rhesus monkey, in vivo
[29] = Cmax in monkey at 0.3 mg/kg, po; format: ADME, organism-based, Macaca mulatta; parameters: dose 0.3 mg/kg, route oral; conditions: rhesus monkey, in vivo
[30] = Terminal half life in monkey at 1 mg/kg, po; format: ADME, organism-based, Macaca mulatta; parameters: dose 1 mg/kg, route oral; conditions: rhesus monkey, in vivo, read-out: beta t1/2 (converted)
[31] = Tmax in monkey at 1 mg/kg, po; format: ADME, organism-based, Macaca mulatta; parameters: dose 1 mg/kg, route oral; conditions: rhesus monkey, in vivo
[32] = Cmax in rat at 0.3 mg/kg, po; format: ADME, organism-based; parameters: dose 0.3 mg/kg, route oral; conditions: in vivo
[33] = Oral bioavailability in monkey at 0.3 mg/kg; format: ADME, organism-based, Macaca mulatta; conditions: rhesus monkey, in vivo
[34] = Terminal half life in rat at 1 mg/kg, po; format: ADME, organism-based; parameters: dose 1 mg/kg, route oral; conditions: in vivo, read-out: beta t1/2 (converted)
[35] = Oral bioavailability in monkey at 1 mg/kg; format: ADME, organism-based, Macaca mulatta; conditions: rhesus monkey, in vivo
[36] = Tmax in rat at 1 mg/kg, po; format: ADME, organism-based; parameters: dose 1 mg/kg, route oral; conditions: in vivo
[37] = Cmax in monkey at 1 mg/kg, po; format: ADME, organism-based, Macaca mulatta; parameters: dose 1 mg/kg, route oral; conditions: rhesus monkey, in vivo

Dipeptidyl peptidase 4, sequence (P14740 whole entry): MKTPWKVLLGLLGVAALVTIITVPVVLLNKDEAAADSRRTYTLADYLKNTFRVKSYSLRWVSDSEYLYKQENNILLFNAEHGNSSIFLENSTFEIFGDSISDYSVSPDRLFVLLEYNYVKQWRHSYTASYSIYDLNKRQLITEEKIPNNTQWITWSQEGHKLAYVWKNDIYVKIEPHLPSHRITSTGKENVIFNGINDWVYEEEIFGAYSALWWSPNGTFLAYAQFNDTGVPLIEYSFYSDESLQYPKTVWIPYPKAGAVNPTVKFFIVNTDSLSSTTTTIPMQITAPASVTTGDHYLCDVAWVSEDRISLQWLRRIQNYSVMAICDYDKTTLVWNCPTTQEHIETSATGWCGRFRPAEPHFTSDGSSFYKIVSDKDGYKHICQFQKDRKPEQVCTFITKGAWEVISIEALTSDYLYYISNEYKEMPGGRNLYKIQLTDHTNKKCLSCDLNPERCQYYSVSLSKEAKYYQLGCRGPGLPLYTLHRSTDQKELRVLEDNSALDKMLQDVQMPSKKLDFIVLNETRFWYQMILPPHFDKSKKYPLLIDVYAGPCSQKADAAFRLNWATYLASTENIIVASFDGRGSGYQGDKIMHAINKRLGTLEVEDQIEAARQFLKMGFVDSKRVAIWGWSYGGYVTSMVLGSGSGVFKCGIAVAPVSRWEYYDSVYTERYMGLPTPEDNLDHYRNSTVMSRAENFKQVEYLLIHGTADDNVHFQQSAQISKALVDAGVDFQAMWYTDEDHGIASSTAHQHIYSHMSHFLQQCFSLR

Cc1cc(N2CCN([C@@H]3CN[C@H](C(=O)N4CCSC4)C3)CC2)n(-c2cccc(F)c2)n1
IC50 (Dipeptidyl peptidase 4): 0.49 nM | inhibition in vivo at 3 µmol/kg (Rattus norvegicus [1]): 96.1% | inhibition in vivo at 3 µmol/kg (Rattus norvegicus [2]): 75.1%

O=C([C@@H]1C[C@H](N2CCN(c3ccnc4ccccc34)CC2)CN1)N1CCSC1
inhibition in vivo at 3 µmol/kg (Rattus norvegicus [1]): 29.7% | inhibition in vivo at 3 µmol/kg (Rattus norvegicus [2]): 12.9%

O=C([C@@H]1C[C@H](N2CCC(c3nnnn3-c3ccccc3)CC2)CN1)N1CCSC1
IC50 (Dipeptidyl peptidase 4): 2.9 nM

O=C([C@@H]1C[C@H](N2CCN(c3nnnn3-c3ccccc3)CC2)CN1)N1CCSC1
IC50 (Dipeptidyl peptidase 4): 0.18 nM | inhibition in vivo at 3 µmol/kg (Rattus norvegicus [1]): 85.1% | inhibition in vivo at 3 µmol/kg (Rattus norvegicus [2]): 70.7%

Cc1cc(N2CCN([C@@H]3CN[C@H](C(=O)N4CCSC4)C3)CC2)n(-c2ccc(F)cc2)n1
IC50 (Dipeptidyl peptidase 4): 2.3 nM

O=C([C@@H]1C[C@H](N2CCN(c3nnnn3C3CCCCC3)CC2)CN1)N1CCSC1
IC50 (Dipeptidyl peptidase 4): 3.1 nM | inhibition in vivo at 3 µmol/kg (Rattus norvegicus [1]): 25.6% | inhibition in vivo at 3 µmol/kg (Rattus norvegicus [2]): 10.5%

O=C([C@@H]1C[C@H](N2CCN(c3ccccn3)CC2)CN1)N1CCSC1
inhibition in vivo at 3 µmol/kg (Rattus norvegicus [1]): 62.7% | inhibition in vivo at 3 µmol/kg (Rattus norvegicus [2]): 19.7%

Cc1cc(N2CCN([C@@H]3CN[C@H](C(=O)N4CCSC4)C3)CC2)n(-c2ccccn2)n1
inhibition in vivo at 3 µmol/kg (Rattus norvegicus [1]): 83% | inhibition in vivo at 3 µmol/kg (Rattus norvegicus [2]): 53.7%

Cc1cc(N2CCN([C@@H]3CN[C@H](C(=O)N4CCSC4)C3)CC2)n(-c2cccnc2)n1
IC50 (Dipeptidyl peptidase 4): 0.77 nM | inhibition in vivo at 3 µmol/kg (Rattus norvegicus [1]): 66.9% | inhibition in vivo at 3 µmol/kg (Rattus norvegicus [2]): 40.8%

O=C([C@@H]1C[C@H](N2CCN(c3cc(C(F)(F)F)nn3-c3ccccc3)CC2)CN1)N1CCSC1
inhibition in vivo at 3 µmol/kg (Rattus norvegicus [1]): 87.4% | inhibition in vivo at 3 µmol/kg (Rattus norvegicus [2]): 81.8%

Cc1cc(N2CCN([C@@H]3CN[C@H](C(=O)N4CCSC4)C3)CC2)n(-c2ccccc2)n1
Activity (Rattus norvegicus [3]): Active | Activity (Rattus norvegicus [4]): Active | Activity (Rattus norvegicus [5]): Active | inhibition (Rattus norvegicus [6]): Dose-dependent effect | inhibition (Rattus norvegicus [7]): Active

Cc1cc(N2CCN([C@@H]3CN[C@H](C(=O)N4CCSC4)C3)CC2)n(-c2ccc(C#N)cn2)n1
IC50 (Dipeptidyl peptidase 4): 14 nM

Cc1cc(N2CCN([C@@H]3CN[C@H](C(=O)N4CCSC4)C3)CC2)n(-c2ccccc2)n1 [TENELIGLIPTIN]
inhibition in vivo at 3 µmol/kg (Rattus norvegicus [1]): 94.8% | inhibition in vivo at 3 µmol/kg (Rattus norvegicus [2]): 78.3%

O=C([C@@H]1C[C@H](N2CCN(c3ccnn3-c3ccccc3)CC2)CN1)N1CCSC1
IC50 (Dipeptidyl peptidase 4): 0.69 nM | inhibition in vivo at 3 µmol/kg (Rattus norvegicus [1]): 90.6% | inhibition in vivo at 3 µmol/kg (Rattus norvegicus [2]): 50.8%

Cc1cc(N2CCN([C@@H]3CN[C@H](C(=O)N4CCSC4)C3)CC2)n(-c2ccccc2F)n1
IC50 (Dipeptidyl peptidase 4): 0.53 nM | inhibition in vivo at 3 µmol/kg (Rattus norvegicus [1]): 75.9% | inhibition in vivo at 3 µmol/kg (Rattus norvegicus [2]): 34.7%

O=C([C@@H]1C[C@H](N2CCC(c3cc(C(F)(F)F)nn3-c3ccccc3)CC2)CN1)N1CCSC1
IC50 (Dipeptidyl peptidase 4): 2.5 nM

Cc1cc(N2CCN([C@@H]3CN[C@H](C(=O)N4CCSC4)C3)CC2)n(-c2ccc(C#N)cc2)n1
IC50 (Dipeptidyl peptidase 4): 13 nM

O=C([C@@H]1C[C@H](N2CCN(c3nccn3-c3ccccc3)CC2)CN1)N1CCSC1
IC50 (Dipeptidyl peptidase 4): 0.19 nM | inhibition in vivo at 3 µmol/kg (Rattus norvegicus [1]): 59.3% | inhibition in vivo at 3 µmol/kg (Rattus norvegicus [2]): 58%

Cc1cc(N2CCN([C@@H]3CN[C@H](C(=O)N4CCSC4)C3)CC2)n(-c2ccc(Cl)cc2)n1
IC50 (Dipeptidyl peptidase 4): 2.9 nM

Cc1cc(N2CCN([C@@H]3CN[C@H](C(=O)N4CCSC4)C3)CC2)n(-c2ccncc2)n1
IC50 (Dipeptidyl peptidase 4): 4.7 nM

Br.Cc1cc(N2CCN([C@@H]3CN[C@H](C(=O)N4CCSC4)C3)CC2)n(-c2ccccc2)n1
AUC(0-inf) [8]: 295 ng·h/mL | Tmax [9]: 0.75 h | bioavailability [10]: 83.2% | Tmax [11]: 1.38 h | AUC(0-inf) [12]: 91.8 ng·h/mL | half-life [13]: 18.9 h | Cmax [14]: 152 ng/mL | bioavailability [15]: 63% | Cmax [16]: 5.48 ng/mL | Cmax [17]: 28.3 ng/mL | half-life [18]: 8.97 h | AUC(0-inf) [19]: 202 ng·h/mL | bioavailability [20]: 85.9% | bioavailability [21]: 62.9% | Tmax [22]: 0.88 h | AUC(0-inf) [23]: 613 ng·h/mL | AUC(0-inf) [24]: 673 ng·h/mL | half-life [25]: 15.8 h | AUC(0-inf) [26]: 1570 ng·h/mL | half-life [27]: 15.2 h | Tmax [28]: 0.5 h | Cmax [29]: 85.1 ng/mL | half-life [30]: 16.1 h | Tmax [31]: 0.88 h | Cmax [32]: 20.6 ng/mL | bioavailability [33]: 57.6% | half-life [34]: 8.43 h | bioavailability [35]: 44.1% | Tmax [36]: 0.75 h | Cmax [37]: 274 ng/mL

O=C([C@@H]1C[C@H](N2CCN(c3nc(-c4ccccc4)cs3)CC2)CN1)N1CCSC1
IC50 (Dipeptidyl peptidase 4): 5.4 nM
